Experimental data published in patent publication US10442767B2 (priority 2012, dated 2019).

Experiments:
[1] = system: hypomyelinated optic nerves from Shiverer mice (shi^−/−); assay: Compound action potential (CAP) of dissected hypomyelinated optic nerve; format: cell-based, mouse; conditions: Mus musculus; hypomyelinated Shiverer optic nerve, 22 °C, Hill fit; read-out: half-maximal effective concentration (EC50) in enhancing the CAP
Method: In order to determine if the drugs could also be effective in enhancing compound action potentials (CAP), the effects of these compounds on the CAP of hypomyelinated optic nerves from Shiverer mice (shi^−/−) and control mice (shi^+/−, shi^+/+) were tested. Shiverer mice lack compact myelin in the CNS due to a null mutation of the myelin basic protein gene (MBP).
optic nerves were dissected from 12-16 week old Shiverer (shi^−/−) and control mice (shi^+/− and shi^+/+). Mice were euthanized by CO2 overdose and the optic nerves were quickly dissected between the eyeball and the optic chiasm. The nerves were incubated for 30 min at 37° C. in oxygenated (95% O2, 5% CO2) aCSF solution (126 mM NaCl, 3 mM KCl, 2 mM MgSO4, 26 mM NaHCO3, 2 mMCaCl2, 10 mM dextrose, pH 7.5) before the experiment.
compound action potentials (CAP) from hypomyelinated nerves (Shiverer mice, shi^−/−) and myelinated nerves (litermate controls, shi^+/− and shi^+/+) were recorded using suction electrodes as described by Stys et al. Briefly, the dissected optic nerve was placed inside a chamber containing oxygenated (5% CO2, 95% O2) aCSF (300 μL) between two suction electrodes (stimulus and recording electrodes) forming a tight seal on each end. Two additional electrodes were placed in the bath for reference. A supramaximal pulse (250 mV, 20 μs) was applied at the stimulating end of the nerve. The resulting CAP was amplified from the recording electrode using a high impedance low-noise amplifier (EG&G Princeton Applied Research Corporation) and filtered and sampled at 10-100 kHz. […] After each measurement the chamber was washed for 5 min (flow 1 mL/min) with oxygenated aCSF. The study was conducted at 22.2±1.3° C. to allow for slower conduction and the temperature was monitored throughout the experiment. CAP recordings were acquired with a SBC6711 board (Innovative Integration) controlled by in-house written software. Analysis of the traces was done using an in-house software. The half-maximal effective concentration (EC50) for each drug was calculated by plotting the final over initial amplitude vs. concentration and fitted to the Hill equation using Origin.
The Hill equation used to fit the data from the voltage-clamp and the optic nerve experiments was as follows: y=y0+(yf−y0)*x^n/(k^n+x^n); where n refers to the Hill coefficient (typically 1±0.1) and k refers to EC50 or IC50. y0 and yf refers to the origin and final ordinate values and were fixed at 1±0.1 or 0±0.1 depending on the experiment. EC50=10^<log EC50>; where <log EC50>=average of log EC50 values from all experiments with the same drug. 95% C.I.=[Upper Limit . . . Lower Limit]; where U.L.=10^(log EC50+s.d.) and L.L.=10^(log EC50−s.d.). The half-life (t1/2) in the stability and pharmacokinetic experiments was calculated by fitting the data to the equation Ct=C0*exp(−k*t) where C0=initial concentration, Ct=concentration at time t, and k=ln 2/t1/2. Student t-test was used to compare results and P<0.05 was considered significant.

C57Bl/6J mice = assay: In vivo effects (tremor, seizures) after intraperitoneal injection; set-up: species or system mouse; conditions: i.p.; for Effect: N = 5
Method: A consequence of excessive K^+ channel blockage is the advent of seizures. 4-AP is known to cause seizures in mice at high doses.
At high doses, 4-AP causes tremors, muscle spasms and seizures.
10-week-old female C57Bl/6J mice were given an intraperitoneal injection of the drug under investigation and monitored continuously for 4 h. After 4 h no signs of drug effects could be observed. At least 72 h passed between injections to the same mice.

[2] = Parallel Artificial Membrane Permeability Assay (PAMPA); format: in vitro ADME
Method: In this experiment, the inventors included highly permeable verapamil and lowly permeable theophylline as controls.
Permeability studies were performed as previously described by Sugano, et al., 2011. A 96-well microplate (acceptor compartment) was filled with PBS containing 5% DMSO. A hydrophobic filter plate (donor compartment) was placed atop the buffer-filled plate and the filter surface was impregnated with 5 μL solution of porcine polar brain lipids (Avanti Lipids) in dodecane (1% w/v). 150 μL of the test compounds dissolved in PBS containing 5% DMSO (compound concentration 0.5 mM) was added to the donor compartment and covered. The only barrier between the two compartments was the artificial BBB membrane containing the porcine polar brain lipids. The whole system was incubated for several hours.

Nc1ccncc1F [3-F-4-AP, 3-fluoro-4-aminopyridine]
EC50 [1]: 96 µM
Effect (C57Bl/6J mice; 30 μmol/kg): Mouse quiet
Effect (C57Bl/6J mice; 60 μmol/kg): Mild tremor, mouse quiet
duration of effect (tremors, seizures or jerks) (C57Bl/6J mice; 90 μmol/kg): ~30 min
mice died of seizure (C57Bl/6J mice; 90 μmol/kg): 1 of 5 mice died of seizure
start of tremors and seizures post-injection (C57Bl/6J mice; 90 μmol/kg (highest dose)): 10 s
Effect (C57Bl/6J mice; 90 μmol/kg): Severe tremors and seizures that start
in vivo potency compared with 4-AP (C57Bl/6J mice; mice): very similar potency to that of 4-AP
times more permeable than 4-AP [2]: 6.6 times
Pe: permeability coefficient across artificial membrane ([2]; porcine polar brain lipids, 0.5 mM, 16 h, n=3): 1.56 ± 0.06 ×10⁻⁶ cm/s
